{"source": "patent US9296757B2", "about": "“Substituted benzothienopyrimidines” (BAYER PHARMA AKTIENGESELLSCHAFT, priority 2012, dated 2016)", "data": [{"target": "human full-length MKNK1 (Homo sapiens (Human), UniProt Q9BUB5, T344D)", "sequence (Q9BUB5 other isoform, or with tags, fused parts or gaps T344D)": "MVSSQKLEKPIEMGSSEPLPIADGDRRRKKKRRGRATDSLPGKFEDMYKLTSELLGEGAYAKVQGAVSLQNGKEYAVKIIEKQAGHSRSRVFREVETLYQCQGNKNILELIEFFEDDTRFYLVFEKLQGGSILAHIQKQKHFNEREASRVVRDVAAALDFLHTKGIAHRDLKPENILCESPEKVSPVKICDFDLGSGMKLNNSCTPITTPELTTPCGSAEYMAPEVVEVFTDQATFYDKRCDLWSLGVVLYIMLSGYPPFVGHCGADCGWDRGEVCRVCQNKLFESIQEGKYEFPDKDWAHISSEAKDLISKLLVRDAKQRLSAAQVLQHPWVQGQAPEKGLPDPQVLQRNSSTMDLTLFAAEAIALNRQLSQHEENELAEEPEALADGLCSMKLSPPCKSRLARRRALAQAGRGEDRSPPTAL", "test": "MKNK1 kinase high ATP assay (TR-FRET)", "type": "biochemical", "conditions": "high ATP (2 mM final), 15 min preincubation with enzyme", "method": "MKNK1-inhibitory activity at high ATP of compounds of the present invention after their preincubation with MKNK1 was quantified employing the TR-FRET-based MKNK1 high ATP assay as described in the following paragraphs.\nA recombinant fusion protein of Glutathione-S-Transferase (GST, N-terminally) and human full-length MKNK1 (amino acids 1-424 and T344D of accession number BAA 19885.1), expressed in insect cells using baculovirus expression system and purified via glutathione sepharose affinity chromatography, was purchased from Carna Biosciences (product no 02-145) and used as enzyme. As substrate for the kinase reaction the biotinylated peptide biotin-Ahx-IKKRKLTRRKSLKG (C-terminus in amide form) was used, which can be purchased e.g. from the company Biosyntan (Berlin-Buch, Germany).\nFor the assay 50 nL of a 100 fold concentrated solution of the test compound in DMSO was pipetted into a black low volume 384 well microtiter plate (Greiner Bio-One, Frickenhausen, Germany), 2 μL of a solution of MKNK1 in aqueous assay buffer [50 mM HEPES pH 7.5, 5 mM MgCl2, 1.0 mM dithiothreitol, 0.005% (v/v) Nonidet-P40 (Sigma)] was added and the mixture was incubated for 15 min at 22° C. to allow pre-binding of the test compounds to the enzyme before the start of the kinase reaction. Then the kinase reaction was started by the addition of 3 μL of a solution of adenosine-tri-phosphate (ATP, 3.3 mM=>final conc. in the 5 μL assay volume is 2 mM) and substrate (0.1 μM=>final conc. in the 5 μL assay volume is 0.06 μM) in assay buffer and the resulting mixture was incubated for a reaction time of 30 min at 22° C. The concentration of MKNK1 was adjusted depending of the activity of the enzyme lot and was chosen appropriate to have the assay in the linear range, typical concentrations were in the range of 0.003 μg/mL. The reaction was stopped by the addition of 5 μL of a solution of TR-FRET detection reagents (5 nM streptavidine-XL665 [Cisbio Bioassays, Codolet, France] and 1 nM anti-ribosomal protein S6 (pSer236)-antibody from Invitrogen [#44921G] and 1 nM LANCE EU-W1024 labeled ProteinG [Perkin-Elmer, product no. AD0071]) in an aqueous EDTA-solution (100 mM EDTA, 0.1% (w/v) bovine serum albumin in 50 mM HEPES pH 7.5).\nThe resulting mixture was incubated for 1 h at 22° C. to allow the formation of complex between the phosphorylated biotinylated peptide and the detection reagents. Subsequently the amount of phosphorylated substrate was evaluated by measurement of the resonance energy transfer from the Eu-chelate to the streptavidine-XL. Therefore, the fluorescence emissions at 620 nm and 665 nm after excitation at 350 nm were measured in a TR-FRET reader, e.g. a Rubystar (BMG Labtechnologies, Offenburg, Germany) or a Viewlux (Perkin-Elmer). The ratio of the emissions at 665 nm and at […] was taken as the measure for the amount of phosphorylated substrate. The data were normalised (enzyme reaction without inhibitor=0% inhibition, all other assay components but no enzyme=100% inhibition).", "units": {"IC50": "nM"}, "values": [{"smiles": "CN(CC#N)C(=O)C1CCc2c(sc3ncnc(Nc4ccc5[nH]c(=O)sc5c4)c23)C1", "note": "(racemic) [Example 49, (RS)-N-(cyanomethyl)-N-methyl-4-[(2-oxo-2,3-dihydro-1,3-benzothiazol-6-yl)amino]-5,6,7,8-tetrahydro[1]benzothieno[2,3-d]pyrimidine-7-carboxamide]", "IC50": 45}, {"smiles": "CC1CCN(C(=O)C2CCc3c(sc4ncnc(Nc5ccc6[nH]c(=O)sc6c5)c34)C2)CC1", "note": "(racemic) [Example 50, (RS)-6-({7-[(4-methylpiperidin-1-yl)carbonyl]-5,6,7,8-tetrahydro[1]benzothieno[2,3-d]pyrimidin-4-yl}amino)-1,3-benzothiazol-2(3H)-one]", "IC50": 43}, {"smiles": "O=C(C1CCc2c(sc3ncnc(Nc4ccc5[nH]c(=O)sc5c4)c23)C1)N1CCC(O)C1", "note": "(racemic) [Example 51, 6-{[(7RS)-7-{[(3RS)-3-hydroxypyrrolidin-1-yl]carbonyl}-5,6,7,8-tetrahydro[1]benzothieno[2,3-d]pyrimidin-4-yl]amino}-1,3-benzothiazol-2(3H)-one]", "IC50": 75}, {"smiles": "COCCN(CCOC)C(=O)C1CCc2c(sc3ncnc(Nc4ccc5[nH]c(=O)sc5c4)c23)C1", "note": "(racemic) [Example 52, (RS)-N,N-bis(2-methoxyethyl)-4-[(2-oxo-2,3-dihydro-1,3-benzothiazol-6-yl)amino]-5,6,7,8-tetrahydro[1]benzothieno[2,3-d]pyrimidine-7-carboxamide]", "IC50": 30}, {"smiles": "O=C(C1CCc2c(sc3ncnc(Nc4ccc5[nH]c(=O)sc5c4)c23)C1)N1CCCC(O)C1", "note": "(racemic) [Example 53, 6-{[(7RS)-7-{[(3RS)-3-hydroxypiperidin-1-yl]carbonyl}-5,6,7,8-tetrahydro[1]benzothieno[2,3-d]pyrimidin-4-yl]amino}-1,3-benzothiazol-2(3H)-one]", "IC50": 52}, {"smiles": "CC(C)N(CCO)C(=O)C1CCc2c(sc3ncnc(Nc4ccc5[nH]c(=O)sc5c4)c23)C1", "note": "(racemic) [Example 54, (RS)-N-(2-hydroxyethyl)-N-isopropyl-4-[(2-oxo-2,3-dihydro-1,3-benzothiazol-6-yl)amino]-5,6,7,8-tetrahydro[1]benzothieno[2,3-d]pyrimidine-7-carboxamide]", "IC50": 28}, {"smiles": "O=C(C1CCc2c(sc3ncnc(Nc4ccc5[nH]c(=O)sc5c4)c23)C1)N1Cc2ccccc2C1", "note": "(racemic) [Example 55, (RS)-6-{[7-(1,3-dihydro-2H-isoindol-2-ylcarbonyl)-5,6,7,8-tetrahydro[1]benzothieno[2,3-d]pyrimidin-4-yl]amino}-1,3-benzothiazol-2(3H)-one]", "IC50": 72}, {"smiles": "CN(CC1CCCO1)C(=O)C1CCc2c(sc3ncnc(Nc4ccc5[nH]c(=O)sc5c4)c23)C1", "note": "(racemic) [Example 56, (7RS)-N-methyl-4-[(2-oxo-2,3-dihydro-1,3-benzothiazol-6-yl)amino]-N-[(2RS)-tetrahydrofuran-2-ylmethyl]-5,6,7,8-tetrahydro[1]benzothieno[2,3-d]pyrimidine-7-carboxamide]", "IC50": 27}, {"smiles": "O=C(C1CCc2c(sc3ncnc(Nc4ccc5[nH]c(=O)sc5c4)c23)C1)N1CCN(CCCO)CC1", "note": "(racemic) [Example 57, (RS)-6-[(7-{[4-(3-hydroxypropyl)piperazin-1-yl]carbonyl}-5,6,7,8-tetrahydro[1]benzothieno[2,3-d]pyrimidin-4-yl)amino]-1,3-benzothiazol-2(3H)-one]", "IC50": 39}, {"smiles": "CC(C)CN(C)C(=O)C1CCc2c(sc3ncnc(Nc4ccc5[nH]c(=O)sc5c4)c23)C1", "note": "(racemic) [Example 58, (RS)-N-isobutyl-N-methyl-4-[(2-oxo-2,3-dihydro-1,3-benzothiazol-6-yl)amino]-5,6,7,8-tetrahydro[1]benzothieno[2,3-d]pyrimidine-7-carboxamide]", "IC50": 63}, {"smiles": "CCN(C)C(=O)C1CCc2c(sc3ncnc(Nc4ccc5[nH]c(=O)sc5c4)c23)C1", "note": "(racemic) [Example 59, (RS)-N-ethyl-N-methyl-4-[(2-oxo-2,3-dihydro-1,3-benzothiazol-6-yl)amino]-5,6,7,8-tetrahydro[1]benzothieno[2,3-d]pyrimidine-7-carboxamide]", "IC50": 40}, {"smiles": "CCN1CCN(C(=O)C2CCc3c(sc4ncnc(Nc5ccc6[nH]c(=O)sc6c5)c34)C2)CC1", "note": "(racemic) [Example 60, (RS)-6-({7-[(4-ethylpiperazin-1-yl)carbonyl]-5,6,7,8-tetrahydro[1]benzothieno[2,3-d]pyrimidin-4-yl}amino)-1,3-benzothiazol-2(3H)-one]", "IC50": 36}, {"smiles": "CC(=O)N(C)C1CCN(C(=O)C2CCc3c(sc4ncnc(Nc5ccc6[nH]c(=O)sc6c5)c34)C2)C1", "note": "(racemic) [Example 61, N-methyl-N-[(3RS)-1-({(7RS)-4-[(2-oxo-2,3-dihydro-1,3-benzothiazol-6-yl)amino]-5,6,7,8-tetrahydro[1]benzothieno[2,3-d]pyrimidin-7-yl}carbonyl)pyrrolidin-3-yl]acetamide]", "IC50": 32}, {"smiles": "CN(C)C(=O)CN(C)C(=O)C1CCc2c(sc3ncnc(Nc4ccc5[nH]c(=O)sc5c4)c23)C1", "note": "(racemic) [Example 62, (RS)-N-[2-(dimethylamino)-2-oxoethyl]-N-methyl-4-[(2-oxo-2,3-dihydro-1,3-benzothiazol-6-yl)amino]-5,6,7,8-tetrahydro[1]benzothieno[2,3-d]pyrimidine-7-carboxamide]", "IC50": 40}, {"smiles": "CCN(CCC#N)C(=O)C1CCc2c(sc3ncnc(Nc4ccc5[nH]c(=O)sc5c4)c23)C1", "note": "(racemic) [Example 63, (RS)-N-(2-cyanoethyl)-N-ethyl-4-[(2-oxo-2,3-dihydro-1,3-benzothiazol-6-yl)amino]-5,6,7,8-tetrahydro[1]benzothieno[2,3-d]pyrimidine-7-carboxamide]", "IC50": 38}, {"smiles": "O=C(C1CCc2c(sc3ncnc(Nc4ccc5[nH]c(=O)sc5c4)c23)C1)N1CCN2CCCCC2C1", "note": "(racemic) [Example 64, 6-({(7RS)-7-[(9aRS)-octahydro-2H-pyrido[1,2-a]pyrazin-2-ylcarbonyl]-5,6,7,8-tetrahydro[1]benzothieno[2,3-d]pyrimidin-4-yl}amino)-1,3-benzothiazol-2(3H)-one]", "IC50": 27}, {"smiles": "O=C(C1CCc2c(sc3ncnc(Nc4ccc5[nH]c(=O)sc5c4)c23)C1)N1CCCC(F)C1", "note": "(racemic) [Example 65, 6-{[(7RS)-7-{[(3RS)-3-fluoropiperidin-1-yl]carbonyl}-5,6,7,8-tetrahydro[1]benzothieno[2,3-d]pyrimidin-4-yl]amino}-1,3-benzothiazol-2(3H)-one]", "IC50": 81}, {"smiles": "CN(CCCCO)C(=O)C1CCc2c(sc3ncnc(Nc4ccc5[nH]c(=O)sc5c4)c23)C1", "note": "(racemic) [Example 66, (RS)-N-(4-hydroxybutyl)-N-methyl-4-[(2-oxo-2,3-dihydro-1,3-benzothiazol-6-yl)amino]-5,6,7,8-tetrahydro[1]benzothieno[2,3-d]pyrimidine-7-carboxamide]", "IC50": 34}, {"smiles": "CN(CCCO)C(=O)C1CCc2c(sc3ncnc(Nc4ccc5[nH]c(=O)sc5c4)c23)C1", "note": "(racemic) [Example 67, (RS)-N-(3-hydroxypropyl)-N-methyl-4-[(2-oxo-2,3-dihydro-1,3-benzothiazol-6-yl)amino]-5,6,7,8-tetrahydro[1]benzothieno[2,3-d]pyrimidine-7-carboxamide]", "IC50": 62}, {"smiles": "CC1CN(C(=O)C2CCc3c(sc4ncnc(Nc5ccc6[nH]c(=O)sc6c5)c34)C2)CC(C)O1", "note": "(racemic) [Example 68, 6-{[(7RS)-7-{[(2RS,6RS)-2,6-dimethylmorpholin-4-yl]carbonyl}-5,6,7,8-tetrahydro[1]benzothieno[2,3-d]pyrimidin-4-yl]amino}-1,3-benzothiazol-2(3H)-one]", "IC50": 32}, {"smiles": "CCCN(CCOC)C(=O)C1CCc2c(sc3ncnc(Nc4ccc5[nH]c(=O)sc5c4)c23)C1", "note": "(racemic) [Example 69, (RS)-N-(2-methoxyethyl)-4-[(2-oxo-2,3-dihydro-1,3-benzothiazol-6-yl)amino]-N-propyl-5,6,7,8-tetrahydro[1]benzothieno[2,3-d]pyrimidine-7-carboxamide]", "IC50": 19}]}]}
